One may read the IC50 as the concentration that gives 50% inhibition. A low value points to greater potency in that assay.

The results in this text go back to BindingDB's records for patent US20230303494 (Academy of Military Medical Sciences, 2023).

Chain of Programmed cell death 1 ligand/protein 1 (Q9NZQ7 whole entry): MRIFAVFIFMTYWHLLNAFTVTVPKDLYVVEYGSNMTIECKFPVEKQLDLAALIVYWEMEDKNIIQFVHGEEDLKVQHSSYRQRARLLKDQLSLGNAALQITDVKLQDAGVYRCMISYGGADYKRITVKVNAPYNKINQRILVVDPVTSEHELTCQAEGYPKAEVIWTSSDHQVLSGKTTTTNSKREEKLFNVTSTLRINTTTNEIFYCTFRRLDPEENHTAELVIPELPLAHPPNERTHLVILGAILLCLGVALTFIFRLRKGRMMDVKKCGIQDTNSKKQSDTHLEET
Chain of Programmed cell death 1 ligand/protein 1 (Q15116 whole entry): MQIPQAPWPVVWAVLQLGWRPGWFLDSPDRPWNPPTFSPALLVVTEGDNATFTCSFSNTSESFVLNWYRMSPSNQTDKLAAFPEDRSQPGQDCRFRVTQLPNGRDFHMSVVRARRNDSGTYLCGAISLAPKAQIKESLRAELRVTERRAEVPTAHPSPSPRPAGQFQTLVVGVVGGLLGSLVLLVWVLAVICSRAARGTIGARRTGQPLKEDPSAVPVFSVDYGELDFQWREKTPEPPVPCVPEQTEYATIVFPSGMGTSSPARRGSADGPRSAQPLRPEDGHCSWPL

The assay has as its target Programmed cell death 1 ligand/protein 1 (Homo sapiens, UniProt Q9NZQ7+Q15116). Description: Activity of Compounds to Inhibit PD-1/PD-L1 Interaction.
Molecule `Cc1c(CNc2cc(OCc3cncc(C#N)c3)c(CNC(CO)C(=O)O)cc2Cl)cccc1-c1ccccc1` (stereo unspecified) [US20230303494, Compound 13] had an IC50 of 26 nM. This counts as double-digit nanomolar.
As to `COc1cc(NCc2cccc(-c3ccccc3)c2C)c(C)cc1CNC(CO)C(=O)O` (stereo unspecified) [US20230303494, Compound 14], the half-inhibitory concentration (IC50) stood at 253 nM.
Then `N#Cc1cncc(COc2cc(NCc3cccc(-c4ccccc4)c3Br)ccc2CNC(CO)C(=O)O)c1` (stereo unspecified) [US20230303494, Compound 31], with 206 nM; and `Cc1cc(CNC(CO)C(=O)O)c(OCc2cncc(C#N)c2)cc1NCc1cccc(-c2ccccc2)c1Br` (stereo unspecified) [US20230303494, Compound 32], with 31 nM.
For `Cc1cc(CNC(CO)C(=O)O)c(OCc2cncc(C#N)c2)cc1NCc1cccc(-c2ccc3c(c2)OCCO3)c1C` (stereo unspecified) [US20230303494, Compound 35], the IC50 was determined as 44 nM.
`Cc1c(CNc2cc(OCc3cncc(C#N)c3)c(CNC(CO)C(=O)O)cc2Cl)cccc1-c1ccc2c(c1)OCCO2` (stereo unspecified) [US20230303494, Compound 36] registered an IC50 of 131 nM.
